In patent publication US20130231290A1, “METHODS OF DIAGNOSING AND TREATING NEURODEGENERATIVE DISEASES” (DIGNITY HEALTH, priority 2010, published 2013):

Experiments:
[1] = target: α7β2-nAChRs on MS/DB cholinergic neurons (Rattus norvegicus, UniProt P12390+Q05941); assay: Perforated-patch whole-cell recording of nAChR-mediated (choline/ACh-induced) currents in acutely dissociated MS/DB cholinergic neurons; assay type: cell-based
[2] = target: T1, homomeric α7-nAChRs on VTA DAergic neurons (Rattus norvegicus, UniProt Q05941); assay type: cell-based
T1 construct: native nAChR responses in rat MS/DB or VTA neurons; endogenous in cells; host or cells: acutely dissociated VTA dopaminergic neurons of Wistar rats

MS/DB neurons = assay: Current-clamp recording of spontaneous action potential firing in dissociated MS/DB neurons; assay type: cell-based, rat; conditions: 1 μM
heteromeric α7β2-nAChRs = target: T2, heteromeric α7β2-nAChRs (Rattus norvegicus, UniProt P12390+Q05941); assay type: cell-based
T2 construct: expressed in transfected cells; host or cells: Xenopus laevis oocytes injected with cRNA (pGEMHE vector)

[3] = target: T3, α7-containing-nAChRs in nAChR β2 subunit knockout mice (Mus musculus, UniProt P49582); assay type: cell-based
T3 construct: MS/DB neurons derived from nAChR β2 subunit knock-out mice; endogenous in cells; host or cells: acutely dissociated MS/DB neurons of nAChR β2 knockout mice (C57/Bl6 background)

[4] = target: T4, α7β2-nAChRs on MS/DB cholinergic neurons (Mus musculus, UniProt P49582+Q9ERK7); assay: Choline-induced currents in MS/DB neurons from wild-type mice; assay type: cell-based; conditions: 1 nM
T4 construct: Compared to MS/DB neurons from WT mice; endogenous in cells; host or cells: acutely dissociated MS/DB neurons of wild-type C57/Bl6 mice

GABAA receptors = assay: GABA-induced currents in rat MS/DB cholinergic neurons; assay type: cell-based; conditions: 1 nM peptide; 0.1 mM GABA
[5] = tested on: ionotropic glutamate receptors; assay: Glutamate-induced currents in rat MS/DB cholinergic neurons; assay type: cell-based; conditions: 1 nM peptide; 1 mM glutamate
[6] = tested on: cultured mouse hippocampal neurons; assay: Aβ-induced degeneration of cultured hippocampal neurons (DAPI staining, LDH levels); assay type: cell-based
[7] = tested on: α7−/− hippocampal neurons; assay: Aβ toxicity in α7−/− hippocampal neurons; assay type: cell-based, mouse; conditions: α7−/− compared to WT hippocampal neurons
[8] = tested on: cultured hippocampal pyramidal neurons; assay: Patch-clamp recording of neuronal excitability in cultured hippocampal neurons after chronic Aβ; assay type: cell-based, mouse; conditions: for neuronal excitability (spontaneous bursting AP firing, input-output curve): chronic exposure, treated vs untreated neurons
neurons from α7−/− mice = assay: Neuronal excitability after chronic Aβ in cultured hippocampal neurons from α7−/− mice; assay type: cell-based, mouse; conditions: chronic exposure
Source text: To further investigate whether pharmacological block of α7-nAChR eliminated the expression of neuronal hyperexcitation after chronic Aβ exposure. […] Comparing cultured neurons from WT and α7−/− mice could further establish if α7-nAChRs play a role in the induction of Aβ-induced neuronal hyperexcitation by comparing cultured neurons from WT and α7−/− mice.

hippocampal CA1 slices = assay: CCh-induced network synchronization, field potential recordings in hippocampal CA1 slices from WT mice; assay type: cell-based, mouse; conditions: 50 μM bath-perfusion, mice 6 months old
Source text: (§1) Comparing CCh-induced network synchronization in the hippocampal CA1 slices from WT and α7−/− mice (6 months old) using field potential recordings allowed testing of whether α7-nAChRs contribute to network synchronization and seizure susceptibility.

α7−/− slices = assay: CCh-induced network synchronization, field potential recordings in hippocampal CA1 slices from α7−/− mice; assay type: cell-based, mouse; conditions: 50 μM, mice 6 months old
Source text: as §1

[9] = tested on: hippocampal slices prepared from 3×Tg-AD mice; assay: CCh-induced network synchronization, field recordings in CA1 of hippocampal slices from 3×Tg-AD mice; assay type: cell-based, mouse; conditions: 3×Tg mice (10 month-old) compared to age-matched WT mice
[10] = chronic Aβ, neurons from WT mice

T1 sequence (Q05941 23-502): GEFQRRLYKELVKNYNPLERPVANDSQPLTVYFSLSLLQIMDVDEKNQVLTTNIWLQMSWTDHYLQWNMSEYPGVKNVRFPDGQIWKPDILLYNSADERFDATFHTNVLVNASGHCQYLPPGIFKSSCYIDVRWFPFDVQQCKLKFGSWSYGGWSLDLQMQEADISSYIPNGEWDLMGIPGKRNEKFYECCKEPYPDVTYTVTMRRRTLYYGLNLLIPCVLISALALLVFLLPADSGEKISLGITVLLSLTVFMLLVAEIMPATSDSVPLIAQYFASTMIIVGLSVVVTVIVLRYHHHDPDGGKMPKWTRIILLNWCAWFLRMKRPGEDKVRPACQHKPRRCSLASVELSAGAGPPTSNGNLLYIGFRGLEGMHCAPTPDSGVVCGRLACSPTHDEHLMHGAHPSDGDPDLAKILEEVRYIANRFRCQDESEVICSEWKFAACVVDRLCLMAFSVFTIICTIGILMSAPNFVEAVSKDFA
Sequence of α7β2-nAChRs on MS/DB cholinergic neurons (Rattus norvegicus, UniProt P12390+Q05941) (Q05941 23-502): as above
Sequence of α7β2-nAChRs on MS/DB cholinergic neurons (Rattus norvegicus, UniProt P12390+Q05941) (P12390 25-500): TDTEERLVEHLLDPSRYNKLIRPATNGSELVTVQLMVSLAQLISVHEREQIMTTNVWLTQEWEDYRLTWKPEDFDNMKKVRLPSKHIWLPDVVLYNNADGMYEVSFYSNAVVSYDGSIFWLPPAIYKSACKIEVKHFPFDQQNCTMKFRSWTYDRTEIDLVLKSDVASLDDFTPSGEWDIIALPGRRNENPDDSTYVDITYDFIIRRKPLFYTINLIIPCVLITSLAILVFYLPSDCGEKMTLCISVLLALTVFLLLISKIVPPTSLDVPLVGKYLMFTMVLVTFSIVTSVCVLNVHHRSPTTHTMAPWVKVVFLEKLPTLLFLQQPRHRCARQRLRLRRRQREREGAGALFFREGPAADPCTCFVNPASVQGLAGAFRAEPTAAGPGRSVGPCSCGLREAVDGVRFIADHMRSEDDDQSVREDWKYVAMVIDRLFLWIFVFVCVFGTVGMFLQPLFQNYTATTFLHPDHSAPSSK
T3 sequence (P49582 23-502): as the sequence (Q05941 23-502) above, with A402T counted along it
T2 sequence (Q05941 23-502): as the sequence (Q05941 23-502) above
T2 sequence (P12390 25-500): as the sequence (P12390 25-500) above
T4 sequence (P49582 23-502): as the sequence (Q05941 23-502) above, with A402T counted along it
T4 sequence (Q9ERK7 26-501): as the sequence (P12390 25-500) above, with A350T, V371M, R379Q, T383A, P387L, V391M, V449I, P468S counted along it

Compound: CNCC/C=C/c1cccnc1 [RJR-2403]
- whole-cell current response to agonist [1]: insensitive
- whole-cell current response to agonist [2]: mimicked

Compound: C[C@@H]1O[C@H](C[N+](C)(C)C)C[C@H]1O [muscarine]
- sensitivity of spontaneous action potential firing (MS/DB neurons): insensitive

Compound: CO[C@H]1CC=C2CCN3CCC4=C(CC(=O)OC4)[C@]23C1 [DHβE, dihydro-β-erythroidine]
- Hill coefficient of concentration-inhibition curve ([1]; 10 mM choline-induced currents, MS/DB neurons, n=8): 0.9
- IC50 ([1]; 10 mM choline, MS/DB neurons, n=8, read-out: IC50 for inhibition of choline-induced currents): 170 nM
- potency difference as inhibitor of choline-induced current, MS/DB vs VTA neurons ([1]; printed as less potent in MS/BD than in VTA neurons): ~500 fold
- Hill coefficient of concentration-inhibition curve ([2]; 10 mM choline-induced currents, VTA neurons): 0.3
- IC50 ([2]; 10 mM choline, VTA neurons, n=7, read-out: IC50 for inhibition of choline-induced currents): > 100000 nM
- sensitivity to functional blockade, α7β2-nAChR compared with homomeric α7-nAChR (heteromeric α7β2-nAChRs; 10 mM choline-induced currents in oocytes): more sensitive
- antagonist sensitivity of choline-induced currents ([3]; MS/DB neurons from β2 knockouts compared with wild-type): lower sensitivity

Compound: Aβ1-42: amyloid beta peptides at positions 1-42 of the amyloid precursor protein (APP), purchased from rPeptide
- effect on ACh-induced current [1]: evident
- effect on choline-induced currents [2]: not sensitive
- sensitivity of choline-induced currents to peptide (heteromeric α7β2-nAChRs): demonstrated sensitivity
- suppression of choline-induced currents [3]: failed to suppress
- suppression of choline-induced currents [4]: did suppress
- inhibition of GABA-induced currents (GABAA receptors): insensitive
- inhibition of glutamate-induced currents [5]: insensitive
- cytotoxicity by LDH levels ([6]; 100 nM for 4, 7 and 10 days, primary cultured hippocampal neurons): increased LDH levels
- loss of cultured hippocampal neurons (DAPI staining) ([6]; 100 nM over several days): cell loss in an exposure-time-dependent manner
- toxic effects on hippocampal neurons [7]: did not show toxic effects
- sEPSC amplitude [8, 10]: but not amplitude
- sEPSC frequency [8, 10]: enhances sEPSC frequency
- neuronal excitability (spontaneous bursting AP firing, input-output curve) [8]: shifted leftwards
- induction of neuronal hyperexcitation (neurons from α7−/− mice): failed to evoke neuronal hyperexcitation

Compound: oligomeric Aβ1-42: Aβ1-42 reconstituted in distilled water, predominantly oligomeric form
- suppression of choline-induced responses by peptide form [1]: greatest suppression

Compound: fibrillar Aβ: Aβ1-42 stock incubated at 37° C. for 48 h at pH 6.0, predominantly fibrillar form
- suppression of choline-induced responses by peptide form [1]: weaker inhibitory effect
- mean resting membrane potential of treated neurons ([8]; 10 days treatment, n=11, untreated −62.8±3.3 mV): −53.4±2.6 mV
- neuronal excitability (spontaneous bursting AP firing, input-output curve) [8]: spontaneous bursting AP firing was observed

Compound: monomeric Aβ1-42: Aβ1-42 reconstituted in DMSO, predominant monomeric form
- suppression of choline-induced responses by peptide form [1]: failed to suppress

Compound: CCN1C[C@]2(COC(=O)c3ccccc3N3C(=O)C[C@H](C)C3=O)CC[C@H](OC)[C@@]34[C@@H]5C[C@H]6[C@H](OC)[C@@H]5[C@](O)(C[C@@H]6OC)[C@@](O)([C@@H](OC)[C@H]23)[C@@H]14 [MLA, methyllycaconitine]
- effect on enhanced neuronal excitation after chronic Aβ exposure ([8]; following a depolarizing pulse, MLA pretreated for 2 min, Aβ oligomers for 9 days): reversibly eliminated

Compound: C[N+](C)(C)CCOC(N)=O [CCh, carbachol]
- induced network synchronization (hippocampal CA1 slices): induced two types of network synchronizations
- induced network synchronization (α7−/− slices): failed to induce θ-oscillations
- induced network synchronization [9]: much stronger network synchronization
